For the assay, the system named is Staphylococcus aureus. The assay is described as follows: Antibacterial activity against methicillin-resistant Staphylococcus aureus at 25 ug/mL. It counts as functional, organism-based.

Active and inactive are the calls of the source. No cut-off for these calls is given here.

Experimental findings from ChEMBL document CHEMBL1150646, “Ravenic acid, a new tetramic acid isolated from a cultured microfungus, Penicillium sp” (J Nat Prod, 2002) are described below.

Turning to `C/C=C/C=C/C=C(C)/C=C/C(O)=C1\C(=O)CNC1=O`, the inhibition entry was “Active”.
